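Step 1: Grow cells in 96-well plates. Step 2: Expose to compound for 48 hours at 5 concentrations. Step 3: Interpolate endpoints linearly; if unreached, use highest concentration. GI50 is the concentration that inhibits growth by half. TGI marks complete inhibition of growth.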
Columns and labels:
Experiment in all cases: NCI anticancer screen, dose series, 48 h
[1] = system: HCT-116 colon
[2] = system: OVCAR-5 ovarian
[3] = system: UO-31 renal
[4] = system: NCI/ADR-RES ovarian
[5] = system: MALME-3M melanoma
[6] = system: M14 melanoma
[7] = system: A498 renal
[8] = system: TK-10 renal
[9] = system: SN12C renal
[10] = system: OVCAR-4 ovarian

SMILES	GI50 [1]	TGI [1]	GI50 [2]	TGI [2]	GI50 [3]	TGI [3]	GI50 [4]	TGI [4]	GI50 [5]	TGI [5]	GI50 [6]	TGI [6]	GI50 [7]	TGI [7]	GI50 [8]	TGI [8]	GI50 [9]	TGI [9]	GI50 [10]	TGI [10]
COc1cc2ncn(-c3cc(OCCc4ccccc4)c(C(N)=O)s3)c2cc1OC	24.6 µM	> 25 µM	> 25 µM	> 25 µM	8.16 µM	> 25 µM	14.8 µM	> 25 µM	> 25 µM	> 25 µM	> 25 µM	> 25 µM	2.43 µM	> 22.3 µM	> 17.2 µM	> 25 µM	24.9 µM	> 25 µM	> 25 µM	> 25 µM
CCc1ccccc1NC(=O)c1sc2nc3c(cc2c1N)C(=O)CCC3	0.512 µM	> 100 µM	1.96 µM	> 100 µM	14.8 µM	> 100 µM	0.433 µM	41.1 µM	26.2 µM	> 100 µM	0.404 µM	> 100 µM	0.22 µM	5.52 µM	23.2 µM	> 100 µM	0.729 µM	> 100 µM	1.54 µM	> 100 µM
[Au+].[Au+].[Au+].[c-]1nccn1Cc1ccccc1.[c-]1nccn1Cc1ccccc1.[c-]1nccn1Cc1ccccc1	6.68 µM	18.6 µM	27.8 µM	61.9 µM	15 µM	28.4 µM	58 µM	> 100 µM	3.35 µM	7.08 µM	2.75 µM	6.68 µM	16.1 µM	33.6 µM	11.1 µM	29.6 µM	8.42 µM	55.3 µM	12.7 µM	44.1 µM
O=C(Nc1ccc(CO)cc1)c1coc2ccccc2c1=O	> 100 µM	> 100 µM	> 100 µM	> 100 µM	> 100 µM	> 100 µM	> 100 µM	> 100 µM	> 100 µM	> 100 µM	> 100 µM	> 100 µM			> 100 µM	> 100 µM	> 100 µM	> 100 µM	> 100 µM	> 100 µM
O=C(Nc1ccc(-c2ccccc2)cc1)C1CCN(S(=O)(=O)c2ccccc2Cl)CC1	39.4 µM	> 100 µM	50 µM	> 100 µM	66.2 µM	> 100 µM	37.1 µM	> 100 µM			64.1 µM	> 100 µM			20.6 µM	60.3 µM	26.9 µM	90.2 µM	22.3 µM	> 100 µM
COc1ccc(OC)c2c(/C=C/c3ccc(N(C)C)cc3)ccnc12		8.11 µM		> 10 µM		> 10 µM		> 10 µM		> 10 µM		> 10 µM		> 10 µM		> 10 µM		> 10 µM		> 10 µM
COc1ccc(-c2c[nH]c(=S)n2-c2ccc(OC)cc2)cc1	> 50 µM	> 50 µM	> 50 µM	> 50 µM	> 50 µM	> 50 µM	> 50 µM	> 50 µM					> 50 µM	> 50 µM	> 50 µM	> 50 µM	> 50 µM	> 50 µM		
Cc1ccc(S(=O)(=O)NCCNc2nccc(-c3c(-c4ccc(F)cc4)nc4sccn34)n2)cc1	3.88 µM	> 100 µM	> 100 µM	> 100 µM	2.38 µM	> 100 µM	4.83 µM	> 100 µM	5.07 µM	> 100 µM			2.33 µM	14.4 µM	7.8 µM	42.6 µM	4.78 µM	> 100 µM	4.98 µM	46.7 µM
NC(N)=NCCCCCNc1noc(Cc2c[nH]c3cc(Br)ccc23)n1	9.78 µM	37 µM	24.9 µM	> 100 µM	20.2 µM	> 100 µM	40.4 µM	> 100 µM	8.34 µM	35 µM	10.8 µM	44.3 µM	> 100 µM	> 100 µM	49.4 µM	> 100 µM	3.87 µM	18.8 µM	12.2 µM	91.8 µM
CCOC(=O)c1c[nH]c2oc(/C=N/N3CC(CN4CCOCC4)OC3=O)cc2c1=O (stereo not given)		> 100 µM		> 100 µM		> 100 µM		> 100 µM		> 100 µM		> 100 µM				> 100 µM		> 100 µM		> 100 µM
COc1ccc(-c2ccc(/C=N/n3c(C)n[nH]c3=S)o2)c([N+](=O)[O-])c1	> 100 µM	> 100 µM	> 100 µM	> 100 µM	> 100 µM	> 100 µM	> 100 µM	> 100 µM	54.1 µM	> 100 µM	> 100 µM	> 100 µM	> 100 µM	> 100 µM	69.1 µM	> 100 µM	> 100 µM	> 100 µM	> 100 µM	> 100 µM
COc1ccc(Nc2c3ccccc3nc3occ(Cl)c23)cc1	< 0.01 µM	3.29 µM	0.269 µM	> 100 µM	0.346 µM	26.9 µM	< 0.01 µM	2.09 µM	0.0124 µM	14.7 µM	0.0287 µM	19.5 µM	< 0.01 µM	0.121 µM	0.0228 µM	8.67 µM	0.0858 µM	19 µM	0.73 µM	> 86.6 µM
Cc1cc2c(cc1Cl)SC(=Nc1ccc(Cl)cc1)N(S(=O)(=O)c1ccccc1)S2(=O)=O	9.78 µM	21.5 µM	4.43 µM	18.7 µM	13.5 µM	32.7 µM	5.25 µM	19.3 µM			12.6 µM	27.6 µM			11.9 µM	24.6 µM	13.8 µM	28.7 µM	11 µM	64.3 µM
Oc1cn(-c2ccc(Cl)cc2)nc1-c1n[nH]c(=S)n1C1CCCCC1	0.612 µM	39.8 µM	3.05 µM	> 100 µM	17 µM	> 100 µM		1.05 µM		> 100 µM	0.682 µM	38.7 µM	0.365 µM	9.44 µM	0.807 µM	34.1 µM	2.43 µM	> 100 µM	31.8 µM	> 100 µM
COc1ccc(-c2oc3cc(O)c(OC)c(O)c3c(=O)c2OC)cc1O	0.0762 µM	6.56 µM					0.0456 µM	> 100 µM					0.21 µM	0.801 µM	21.1 µM	> 100 µM	0.212 µM	> 100 µM	1.26 µM	> 100 µM
O=C(Nc1ccc(-n2cc(-c3ccncc3)c(-c3ccc(Cl)c(O)c3)n2)cc1)Nc1ccc(Cl)c(C(F)(F)F)c1	1.29 µM	2.72 µM	3.3 µM	8.98 µM	1.66 µM	3.6 µM	1.88 µM	4.83 µM			1.43 µM	3.11 µM	1.63 µM	9.29 µM	3.64 µM	15.1 µM	1.59 µM	3.86 µM	0.639 µM	6.12 µM
COCCOc1cnc2ccn([C@H](C)c3nnc4c(F)cc(-c5cnn(C)c5)cn34)c(=O)c2c1	> 100 µM	> 100 µM	> 100 µM	> 100 µM	70.6 µM	> 100 µM	> 100 µM	> 100 µM	> 100 µM	> 100 µM	> 100 µM	> 100 µM	33.1 µM	> 100 µM	> 100 µM	> 100 µM	> 100 µM	> 100 µM	52 µM	> 100 µM
Cn1cc(C2=C(c3cn(CCCCCN)c4ccccc34)C(=O)NC2=O)c2ccccc21	5.85 µM	> 16.7 µM	> 25 µM	> 25 µM	5.52 µM	> 25 µM	12.8 µM	> 25 µM	18.4 µM	> 25 µM	12.4 µM	> 25 µM	11.3 µM	> 25 µM	10.6 µM	> 25 µM	9.33 µM	> 25 µM	12.7 µM	> 25 µM
COc1cc2c(cc1O)C1Cc3ccc(OC)c(O)c3C(C2)N1C (stereo not given)		> 100 µM		> 100 µM		> 100 µM		> 100 µM		> 100 µM		> 100 µM		> 100 µM		> 100 µM		> 100 µM		> 100 µM
O=C(COc1ccc(/C=C2\CSc3ccccc3C2=O)cc1)Nc1nccs1	4.32 µM	14.7 µM	18.2 µM	32.8 µM	2.24 µM	6.73 µM	21.4 µM	66.5 µM	15 µM	31.4 µM	9.38 µM	21.2 µM	15.8 µM	29.2 µM	10.6 µM	27.7 µM	5.8 µM	29.8 µM	18.9 µM	72.3 µM
COc1ccc2c(c1)[C@@]13CCCC[C@H]1[C@@H](C2)N(C)CC3=O		29.7 µM		33.3 µM		32.9 µM		84.4 µM		33.1 µM		31 µM				40.7 µM		50.4 µM		33.3 µM
O=C(/C=C/c1cc(CN2CCOCC2)c(O)c2ncccc12)c1cc(CN2CCOCC2)c(O)c2ncccc12	0.0245 µM	> 100 µM	0.0585 µM	> 100 µM	0.0408 µM	> 100 µM	0.091 µM	> 100 µM	0.145 µM	> 100 µM	0.0506 µM	> 64.2 µM	0.246 µM	18 µM	0.0318 µM	> 100 µM	0.0673 µM	> 100 µM	0.0804 µM	> 100 µM
N#CC(=NCCO)C1=C(O)c2ccccc2C1=O		> 100 µM		> 100 µM		> 100 µM		> 100 µM		> 100 µM		> 100 µM		> 100 µM		> 100 µM		> 100 µM		> 100 µM
O=C(Nc1ccc(Br)cc1)c1ccc(Cl)c(Cl)c1	2.72 µM	8.07 µM	3.9 µM	> 100 µM	2.31 µM	> 100 µM	3.24 µM	> 100 µM			3.76 µM	> 100 µM	0.207 µM	3.75 µM	4.78 µM	> 100 µM	3.21 µM	> 100 µM	3.78 µM	> 100 µM
Cc1cc(S(=O)(=O)N/N=C(\Sc2cc(Cl)c(C)cc2S(N)(=O)=O)c2ccc(Cl)cc2)c(Cl)cc1Cl	79.4 µM	> 100 µM	> 100 µM	> 100 µM	57.1 µM	> 100 µM	> 100 µM	> 100 µM			> 100 µM	> 100 µM	57.1 µM	> 100 µM	> 100 µM	> 100 µM	97.2 µM	> 100 µM	63.1 µM	> 100 µM
CC(=O)O[C@H](C[C@H](C(C)C)N(C)C(=O)[C@@H](NC(=O)[C@H]1CCCCN1C)C(C)C)c1nc(C(=O)N[C@@H](Cc2ccccc2)C[C@H](C)C(=O)O)c(CCOCc2ccccc2)s1	< 0.001 µM	0.176 µM	< 0.001 µM	> 10 µM	0.00486 µM	> 10 µM	0.003 µM	0.0511 µM	< 0.001 µM	> 10 µM			< 0.001 µM	0.00316 µM	0.108 µM	> 10 µM	< 0.001 µM	> 10 µM	0.00242 µM	> 10 µM
Cc1c(C2=C(Br)C(=O)N(C)C2=O)c(=O)n(C)c(=O)n1C		40.9 µM		> 100 µM		33.3 µM		74.1 µM				> 100 µM		82.9 µM		31.8 µM		> 100 µM		> 100 µM
O=C(Nc1cc(Cl)ccc1Cl)C(=O)C(c1cnc2ccccc2n1)[N+](=O)[O-] (stereo not given)		> 100 µM		> 100 µM		> 100 µM				> 100 µM		> 100 µM		> 100 µM		> 100 µM		> 100 µM		> 100 µM

From PubChem BioAssay (NCI)
